Measured values published in patent US20080207447A1, “Cyanopyridine Pesticides” (BASF Aktiengesellschaft, priority 2005, published 2008).

Columns and labels:
Assay type in all cases: in vivo
[1] = system: Cotton Aphid (Aphis gossypii), mixed life stages; assay: Cotton aphid (Aphis gossypii), mixed life stages, cotyledon dip test; conditions: 120 h, infested cotton cotyledons dipped, determined after 5 days, read-out: mortality of cotton aphid in comparison with untreated controls
Method: (§1) The active compounds were formulated in a mixture of 50 vol.-% acetone:50 vol.-% water. A nonionic surfactant (Kinetic®) was included in the solution at a volume of 0.01% v/v.
(§2) In the following tests, the formulated solutions of the active compounds were diluted to an active ingredient concentration of 300 ppm and the diluted solutions were applied in the below mentioned tests.
(§3) II.1 Cotton Aphid (Aphis gossypil), Mixed Life Stages • Cotton plants at the cotyledon stage were infested prior to treatment by placing a heavily infested leaf from the main aphid colony on top of each cotyledon. The aphids were allowed to transfer overnight and the host leaf was removed. The infested cotyledons were then dipped and agitated in the test solution for 3 seconds and allowed to dry in a fume hood. […] Aphid mortality on the treated plants, relative to mortality on untreated check plants, was determined after 5 days. • In this test compounds each of examples 12 to 36, 38, 39, 40 and 41 at 300 ppm provided at least 90% mortality of cotton aphid (Aphis gossypii, mixed life stages) in comparison with untreated controls. […] Aphid mortality on the treated plants, relative to mortality on untreated check plants, was determined after 5 days. • In this test compounds each of examples 12 to 36, 38, 39, 40 and 41 at 300 ppm provided at least 90% mortality of green peach aphidin comparison with untreated controls. […]

[2] = system: Green Peach Aphid (Myzus persicae), mixed life stages; assay: Green peach aphid (Myzus persicae), mixed life stages, bell pepper leaf dip test; conditions: foliar, 120 h, infested bell pepper leaves dipped, determined after 5 days, read-out: mortality of green peach aphid in comparison with untreated controls
Method: as §1, §2, §3

Bean Aphid (Aphis fabae) = assay: Bean aphid (Aphis fabae), nasturtium plant dip test; conditions: 72 h, infested nasturtium plants dipped, determined after 3 days, read-out: mortality of bean aphid in comparison with untreated controls

Measured: mortality at 300 ppm

Cc1cncc(S(=O)(=O)N(C)C)c1C#N [Example 12, 4-Cyano-5-methyl-pyridine-3-sulfonic acid dimethylamide]
≥ 90%: all assays above
